Patent US12110281B2, “Catechol derivatives or salt thereof, processes for preparing the same, and pharmaceutical compositions comprising the same” (HEXAPHARMATEC CO., LTD., priority 2018, dated 2024)
Counter-ions that a name gives are not always drawn.

What was measured:
Hela cells = test: Autophagy-inducing activities in Hela cells (Autophagy Detection Kit); assay type: cell-based
Procedure: The autophagy-inducing activities of the compounds of the present invention were measured in Hela cells (Korean Cell Line Bank), using the Autophagy Detection Kit (ab139484, Abcam), according to the manufacturer's instructions. Specifically, 100 μL of EBSS (Earle's Balanced Salt Solution, WELGENE (LB 002-03)) containing 10% fetal bovine serum (FBS) was added to each well of a 96-well plate. Hela cells (1×10^4 cells) were added to each well and then incubated overnight at 37° C. in a CO2 incubator so as to stabilize the cells. The medium of each well containing the stabilized cells was replaced with a medium obtained by adding 10 nM or 100 nM of the compounds prepared in Examples (test compounds) to a EBSS containing 10% FBS. As a positive control, rapamycin was dissolved in dimethyl sulfoxide and then treated at a concentration of 500 nM per well. After the treatments, the cells were incubated at 37° C. in a CO2 incubator for 4 hours or 24 hours and then washed twice with the 1× assay buffer (prepared by adding 9 mL of distilled water to the 10× assay buffer). EBSS containing 5% fetal bovine serum, 1 μL/ml of Green detection reagent and 1 μL/ml of Nuclear stain was added thereto in the amount of 100 μL per well. The cells were incubated for 1 hour at 37° C. in a CO2 incubator and then washed twice with the 1× assay buffer. The absorbance values were measured at 488 nm, using a microplate reader (Cytation 3). The tests were repeated four times.
The absorbance values, which were obtained by treating Hela cells with the test compounds (100 nM) and the positive control (rapamycin, 500 nM) and then incubating for 4 hours as described in above, are shown in Table 1 below. And also, the absorbance values, which were obtained by treating Hela cells with the test compounds (10 nM or 100 nM) and the positive control (rapamycin, 500 nM) and then incubating for 24 hours as described in above, are shown in Table 2 below.

[1] = system: dimethylnitrosamine (DMN)-induced liver injury male SD rats; test: Liver function-improving activities by oral administration in the liver injury model (1), 3 weeks; assay type: in vivo, rat; conditions: serum, 25 mg/kg oral once a day
Description: The compounds according to the present invention were orally administered to dimethylnitrosamine (DMN)-induced liver injury male SD rats for 3 weeks, so as to evaluate liver function-improving activities. Specifically, 7-week-old male SD rats (Orient Bio, Korea) were accommodated to the laboratory environment at room temperature for 7 days. General symptoms were observed and then only healthy animals were used for the experiment. The rats were divided into 9 groups (n=5 for each group), the normal control group, the group to which only DMN is administered, and the groups to which both the compound of the present invention (the compounds of Example 2, 5, 6, 9, 10, 20 or 21) and DMN are administered. DMN was dissolved in purified water and then administered intraperitoneally at the dose of 10 mg/kg for 3 consecutive weeks (3 times per week, for 4 weeks). Blood samples were collected on Day 3 after the completion of the first-week liver injury inducement and then the ALT (Alanine Transaminase) values and the AST (Aspartate Transaminase) values were measured so as to confirm the liver injury thereof. The compounds of the present invention were administered for 3 weeks, i.e., from Day 4 after the completion of the first-week liver injury inducement to the DMN-administering period. The seven compounds of the present invention were dissolved in purified water or corn oil and then orally administered, using an oral sonde, at the dose of 25 mg/kg once a day for 3 weeks. Blood samples were collected on Day 0 (3 days after the completion of the first-week liver injury inducement) and Day 7, 14 and 21 after the administration of the test compounds. The collected blood was injected into a vacutainer tube containing a clot activator and then allowed to stand at room temperature for about 20 minutes so as to coagulate each blood sample. After centrifugation for 10 minutes, the resulting serums were subjected to blood-biochemical tests.

[2] = test compound 10 nM, incubation for 24 hours
[3] = test compound 100 nM, incubation for 4 hours
[4] = test compound 100 nM, incubation for 24 hours
[5] = 0 week (Day 0, before administration of test compound)

COc1cc(-c2ccc(C(=O)N3CCN(C)CC3)s2)ccc1O [Example 1, hydrochloride]
Absorbance (at 488 nm) (Hela cells; [2]): 1617.3
Absorbance (at 488 nm) (Hela cells; [3]): 1321.2
Absorbance (at 488 nm) (Hela cells; [4]): 1660.3

CCN(CC)CCOc1ccc(-c2ccc(C(=O)N3CCN(C)CC3)s2)cc1OC.Cl.Cl [Example 2, N-(4-methylpiperazino)-5-(4-(2-diethylamino)ethoxy-3-methoxyphenyl)thiophene-2-carboxamide hydrochloride]
Absorbance (at 488 nm) (Hela cells; [2]): 1829.3
Absorbance (at 488 nm) (Hela cells; [3]): 1460.5
Absorbance (at 488 nm) (Hela cells; [4]): 1866.3
ALT values (average value) [1, 5]: 67.24 U/L
AST values (average value) [1, 5]: 143.32 U/L
ALT values (average value) ([1]; 1 week): 101.70 U/L
AST values (average value) ([1]; 1 week): 210.86 U/L
ALT values (average value) ([1]; 2 weeks): 113.22 U/L
AST values (average value) ([1]; 2 weeks): 223.88 U/L
ALT values (average value) ([1]; 3 weeks): 126.10 U/L
AST values (average value) ([1]; 3 weeks): 250.76 U/L

COc1cc(-c2ccc(C(=S)N3CCN(C)CC3)s2)ccc1O [Example 3, N-(4-methylpiperazino)-5-(4-hydroxy-3-methoxyphenyl)thiophene-2-thiocarboxamide hydrochloride]
Absorbance (at 488 nm) (Hela cells; [2]): 1576.3
Absorbance (at 488 nm) (Hela cells; [3]): 1193.8
Absorbance (at 488 nm) (Hela cells; [4]): 1754.3

CCN(CC)CCOc1ccc(-c2ccc(C(=S)N3CCN(C)CC3)s2)cc1OC.Cl.Cl [Example 4, N-(4-methylpiperazino)-5-(4-(2-diethylamino)ethoxy-3-methoxyphenyl)thiophene-2-thiocarboxamide hydrochloride]
Absorbance (at 488 nm) (Hela cells; [2]): 1691.3
Absorbance (at 488 nm) (Hela cells; [3]): 1580.6
Absorbance (at 488 nm) (Hela cells; [4]): 1618.3

COc1cc(-c2ccc(C(=O)NCCN(C(C)C)C(C)C)s2)ccc1O.Cl [Example 5, N-(2-(diisopropylamino)ethyl)-5-(4-hydroxy-3-methoxyphenyl)thiophene-2-carboxamide hydrochloride]
Absorbance (at 488 nm) (Hela cells; [2]): 1557.3
Absorbance (at 488 nm) (Hela cells; [3]): 1348.0
Absorbance (at 488 nm) (Hela cells; [4]): 1618.3
ALT values (average value) [1, 5]: 68.90 U/L
AST values (average value) [1, 5]: 137.66 U/L
ALT values (average value) ([1]; 1 week): 96.60 U/L
AST values (average value) ([1]; 1 week): 187.26 U/L
ALT values (average value) ([1]; 2 weeks): 108.80 U/L
AST values (average value) ([1]; 2 weeks): 219.66 U/L
ALT values (average value) ([1]; 3 weeks): 111.00 U/L
AST values (average value) ([1]; 3 weeks): 234.22 U/L

CCN(CC)CCOc1ccc(-c2ccc(C(=O)NCCN(C(C)C)C(C)C)s2)cc1OC.Cl.Cl [Example 6, N-(2-(diisopropylamino)ethyl)-5-(4-(2-diethylamino)ethoxy-3-methoxyphenyl)thiophene-2-carboxamide hydrochloride]
Absorbance (at 488 nm) (Hela cells; [2]): 1784.6
Absorbance (at 488 nm) (Hela cells; [3]): 1670.5
Absorbance (at 488 nm) (Hela cells; [4]): 1893.7
ALT values (average value) [1, 5]: 68.02 U/L
AST values (average value) [1, 5]: 141.78 U/L
ALT values (average value) ([1]; 1 week): 80.46 U/L
AST values (average value) ([1]; 1 week): 220.86 U/L
ALT values (average value) ([1]; 2 weeks): 98.94 U/L
AST values (average value) ([1]; 2 weeks): 215.42 U/L
ALT values (average value) ([1]; 3 weeks): 109.80 U/L
AST values (average value) ([1]; 3 weeks): 249.56 U/L

COc1cc(-c2ccc(C(=S)NCCN(C(C)C)C(C)C)s2)ccc1O.Cl [Example 7, N-(2-(diisopropylamino)ethyl)-5-(4-hydroxy-3-methoxyphenyl)thiophene-2-thiocarboxamide hydrochloride]
Absorbance (at 488 nm) (Hela cells; [2]): 1598.5
Absorbance (at 488 nm) (Hela cells; [3]): 1325.5
Absorbance (at 488 nm) (Hela cells; [4]): 1605.5

CCN(CC)CCOc1ccc(-c2ccc(C(=S)NCCN(C(C)C)C(C)C)s2)cc1OC.Cl.Cl [Example 8, N-(2-(diisopropylamino)ethyl)-5-(4-(2-diethylamino)ethoxy-3-methoxyphenyl)thiophene-2-thiocarboxamide hydrochloride]
Absorbance (at 488 nm) (Hela cells; [2]): 1586.3
Absorbance (at 488 nm) (Hela cells; [3]): 1315.2
Absorbance (at 488 nm) (Hela cells; [4]): 1612.3

CCN(CC)CCOc1ccc(-c2ccc(C(=O)NC(C)C)s2)cc1OC.Cl [Example 9, N-isopropyl-5-(4-(2-diethylamino)ethoxy-3-methoxyphenyl)thiophene-2-carboxamide hydrochloride]
Absorbance (at 488 nm) (Hela cells; [2]): 1594.0
Absorbance (at 488 nm) (Hela cells; [3]): 1320.2
Absorbance (at 488 nm) (Hela cells; [4]): 1951.7
ALT values (average value) [1, 5]: 67.64 U/L
AST values (average value) [1, 5]: 140.64 U/L
ALT values (average value) ([1]; 1 week): 103.78 U/L
AST values (average value) ([1]; 1 week): 220.58 U/L
ALT values (average value) ([1]; 2 weeks): 111.80 U/L
AST values (average value) ([1]; 2 weeks): 241.06 U/L
ALT values (average value) ([1]; 3 weeks): 117.92 U/L
AST values (average value) ([1]; 3 weeks): 222.50 U/L

CCN(CC)CCOc1ccc(-c2ccc(C(=S)NC(C)C)s2)cc1OC.Cl [Example 10, N-isopropyl-5-(4-(2-diethylamino)ethoxy-3-methoxyphenyl)thiophene-2-thiocarboxamide hydrochloride]
Absorbance (at 488 nm) (Hela cells; [2]): 1729.3
Absorbance (at 488 nm) (Hela cells; [3]): 1390.0
Absorbance (at 488 nm) (Hela cells; [4]): 1882.3
ALT values (average value) [1, 5]: 67.46 U/L
AST values (average value) [1, 5]: 145.00 U/L
ALT values (average value) ([1]; 1 week): 85.06 U/L
AST values (average value) ([1]; 1 week): 202.52 U/L
ALT values (average value) ([1]; 2 weeks): 102.94 U/L
AST values (average value) ([1]; 2 weeks): 218.60 U/L
ALT values (average value) ([1]; 3 weeks): 102.94 U/L
AST values (average value) ([1]; 3 weeks): 199.34 U/L

COc1cc(-c2ccc(C(=S)NC(C)C)s2)ccc1O [Example 11, N-isopropyl-5-(4-hydroxy-3-methoxyphenyl)thiophene-2-thiocarboxamide]
Absorbance (at 488 nm) (Hela cells; [2]): 1459.7
Absorbance (at 488 nm) (Hela cells; [3]): 1268.4
Absorbance (at 488 nm) (Hela cells; [4]): 1731.0

COc1cc(-c2ccc(C(=O)NCC3(N(C)C)CCOCC3)s2)ccc1O.Cl [Example 20, N-((4-(dimethylamino)tetrahydro-2H-pyran-4-yl)methyl)-5-(4-hydroxy-3-methoxyphenyl)thiophene-2-carboxamide hydrochloride]
ALT values (average value) [1, 5]: 69.80 U/L
AST values (average value) [1, 5]: 136.28 U/L
ALT values (average value) ([1]; 1 week): 87.26 U/L
AST values (average value) ([1]; 1 week): 194.88 U/L
ALT values (average value) ([1]; 2 weeks): 104.34 U/L
AST values (average value) ([1]; 2 weeks): 209.56 U/L
ALT values (average value) ([1]; 3 weeks): 116.14 U/L
AST values (average value) ([1]; 3 weeks): 229.74 U/L

CO[C@H]1C[C@@H]2CC[C@@H](C)[C@@](O)(O2)C(=O)C(=O)N2CCCC[C@H]2C(=O)O[C@H]([C@H](C)C[C@@H]2CC[C@@H](O)[C@H](OC)C2)CC(=O)[C@H](C)/C=C(\C)[C@@H](O)[C@@H](OC)C(=O)[C@H](C)C[C@H](C)/C=C/C=C/C=C/1C [Rapamycin, rapamycin, reference compound]
Absorbance (at 488 nm) (Hela cells; positive control 500 nM, incubation for 4 hours): 1306.2
Absorbance (at 488 nm) (Hela cells; positive control 500 nM, incubation for 24 hours): 1594.2
